Test results taken from publication PMC5559490, “Synthesis of Saccharumoside-B analogue with potential of antiproliferative and pro-apoptotic activities” (Scientific Reports, 2017).

How the values were obtained:
[1] = system: DU145 prostate cancer cells; assay: MTT antiproliferative assay, DU145; assay type: cell-based; conditions: Homo sapiens, DU-145; MTT assay; cancer cell line; mean of three independent experiments ± S.E.M.; read-out: IC50 DU145 Prostate
[2] = system: MCF-7 breast cancer cells; assay: MTT antiproliferative assay, MCF-7; assay type: cell-based; conditions: Homo sapiens, MCF7; MTT assay; cancer cell line; mean of three independent experiments ± S.E.M.; read-out: IC50 MCF-7 Breast
[3] = system: HeLa cervical cancer cells; assay: MTT antiproliferative assay, HeLa; assay type: cell-based; conditions: Homo sapiens, MTT assay, cancer cell line, mean of three independent experiments ± S.E.M., read-out: IC50 HeLa Cervical
[4] = system: MCF-10A mammary epithelial cells; assay: MTT assay on normal MCF-10A cells; assay type: cell-based; conditions: Homo sapiens, MTT assay, normal cells, 48 h, read-out: IC50 MCF-10A Breast (normal cell line)
[5] = system: human peripheral blood mononuclear cells (PBMC); assay: MTT assay on normal PBMC; assay type: cell-based; conditions: MTT assay, normal cells, 48 h, read-out: IC50 PBMC (normal cells)
MCF-7 cells = assay: Rhodamine-123 mitochondrial membrane potential assay, MCF-7; assay type: cell-based, human; conditions: 24 h
Method: [Worded in the source for another cell line; this cell line is reported under the same test.] Mitochondrial membrane potential changes (ΔΨm) were determined by flow cytometry using rhodamine-123 (green-fluorescent dye)[32]. MIA PaCa-2 pancreatic cancer cells (1 × 10^6 cells/well) were exposed to the isolated compound (5 µM) for 24 h. Further, rhodamine-123 (200 nM) was added to the cells, which were kept in dark for 35 min. The cells were further centrifuged and the pellet was washed with phosphate buffered saline (1 ml). The intensity of fluorescence in the cells represented the mitochondrial membrane potential change (ΔΨm), which was measured using a flow cytometer.

HL-60 cells = assay: Rhodamine-123 mitochondrial membrane potential assay, HL-60; assay type: cell-based, human; conditions: compared to untreated cells
[6] = system: MCF-7 breast cancer cells; assay: Quantification of apoptosis (Annexin V-PI), MCF-7; assay type: cell-based, human; conditions: MCF-7 cells, 5 and 10 µM, 24 h
Description: (§1) Apoptotic population of cancer cells was quantified by Annexin V-propidium iodide (PI) staining technique (Abcam, Cambridge, MA, USA) using a flow cytometer as per published technique.

HL-60 cancer cells = assay: Quantification of apoptosis (Annexin V-PI), HL-60; assay type: cell-based, human; conditions: HL-60 cells
Description: as §1

Bax = assay: Quantification of Bax (immunometric assay), MCF-7; assay type: cell-based, human; conditions: MCF-7 cells; compared to untreated cells
Method: Bax protein concentration determination was carried out using the Human Bax Enzyme Immunometric Assay kit (Assay Designs, Ann Arbor, MI, USA). The lysate (sample) preparation was carried out according to the manual. Following centrifugation (16,000 g for 15 min), the cells were resuspended in Modified Cell lysis buffer 4 [0.5 μL/mL of Sigma Protease Inhibitor Cocktail and 1 mM phenylmethylsulfonyl fluoride (PMSF)]. Cell lysate (100 μL) (sample) was added into the wells coated with monoclonal antibody to human Bax-α in triplicate. The plate was tapped gently to mix the contents. The sample was incubated at room temperature on a plate shaker for 1 h. The wells were emptied and washed with 5X wash buffer. After the final wash, the plate was tapped gently on a lint free paper towel to remove any remaining wash buffer. The sample was incubated again for 1 h at room temperature on a plate shaker after the addition of 100 μL of specific antibody (biotinylated monoclonal antibody to Bax-α) into each well. The wells were washed again with 5X wash buffer and emptied. Next, 100 μL of blue conjugate (streptavidin conjugated to horseradish peroxidase) was added into each well. […] The optical densities were read at 450 and 570 nm using an ELISA reader. Bax protein concentration was determined from the standard protein graphic using the optical densities of the samples[32].

cytosolic cytochrome c = assay: Cytosolic cytochrome c estimation (ELISA), HL-60; assay type: cell-based, human; conditions: HL-60 cells; cytosolic fraction
Method: Cells were collected by centrifugation at 600 g for 5 min at 4 °C. The cell pellets were washed once with ice-cold PBS and resuspended in cytosol extraction buffer (20 mM Hepes-KOH, pH 7.5, 10 mM KCl, 1.5 mM MgCl2, 1 mM sodium EDTA, 1 mM sodium EGTA, 1 mM dithiothreitol and 0.1 mM PMSF) containing 250 mM sucrose on ice for 10 min. The cells were homogenized with the grinder on ice. Further, the homogenates were centrifuged at 700 g for 10 min at 4 °C. The supernatants were centrifuged at 10,000 × g for 30 min at 4 °C. Supernatant was collected as cytosolic fraction.
Cytosolic cytochrome c levels were determined using quantitative sandwich enzyme immunoassay using microplate reader. Sample or standard (100 μL) was added into each well and incubated for 2 h at room temperature. The wells were washed several times with wash buffer. The plate was inverted and cleaned with paper toweling. Cytochrome c conjugate (200 μL) was added into each well and incubated for 2 h at room temperature. Wells were washed several times with wash buffer. Substrate solution (200 μL) was added into each well and incubated for 30 min at room temperature. Finally, stop solution (50 μL) was added into wells. The optical density (absorbance) of each well was determined using microplate reader at a 450 nm wavelength.

caspase-8 [7] = assay: Caspase-8 colorimetric assay, MCF-7; assay type: cell-based, human; conditions: MCF-7 cells; data not showed
Method: (§2) Caspases-3, -8 and -9 assays were measured according to manufacturer’s instructions using a caspase colorimetric protease kit (Abcam, Cambridge, MA, USA). Cells were treated with compounds for 48 h. The cells were lysed by the addition of 50 μL of chilled cell lysis buffer and incubated on ice for 10 min. The resulting cell lysate was centrifuged for 1 min at 10,000 g, and the supernatant was collected. The cell lysate containing […] of protein was incubated with […] of 4 mmol/L pNA-conjugated substrates (DEVD-pNA, IETD-pNA and LEHD-pNA; substrates for caspase-3, -8 and -9, respectively) at 37 °C for 3 h. The amount of pNA released was measured at 405 nm using an ELISA microplate reader (Bio rad). The caspases activity was expressed as fold difference, [33].

caspase-3 = assay: Caspase-3 colorimetric assay, HL-60; assay type: cell-based, human; conditions: HL-60 cells
Method: as §2

caspase-8 [8] = assay: Caspase-8 colorimetric assay, HL-60; assay type: cell-based, human; conditions: HL-60 cells; data not showed
Method: as §2

COc1cc(CO)ccc1OC1OC(COC(=O)c2ccc(F)cc2)C(O)C(O)C1O (stereo not shown) [Compound 9f, (6-(4-(hydroxymethyl)-2-methoxyphenoxy)-tetrahydro-3,4,5-trihydroxy-2H-pyran-2-yl)methyl 4-fluorobenzoate]
IC50 [1]: 10.8 ± 0.42 µM
IC50 [2]: 6.13 ± 0.64 µM
IC50 [3]: 7.85 ± 0.57 µM
IC50 [4]: > 100 µM
IC50 [5]: > 100 µM
mitochondria membrane potential loss (MCF-7 cells; 5 µM): 41.33 ± 1.43%
mitochondria membrane potential loss (MCF-7 cells; 10 µM): 52.67 ± 2.33%
mitochondria membrane potential loss (HL-60 cells; 5 µM): 55.32 ± 2.14%
mitochondria membrane potential loss (HL-60 cells; 10 µM): 65.56 ± 2.56%
apoptotic cell population [6]: dose-dependent increase in the early apoptotic to late apoptotic population
apoptotic cell population (HL-60 cancer cells): increase in the early apoptotic to late apoptotic cells in a dose-dependent fashion
effect on Bax protein levels (Bax): dose dependently increased
effect on cytosolic cytochrome c levels (cytosolic cytochrome c): dose dependently increased
effect on caspase-8 activity (caspase-8 [7]): did not show considerable effect
effect on caspase-3 activity (caspase-3): enhanced caspase-3 and -9 activities
effect on caspase-8 activity (caspase-8 [8]): did not exhibit considerable effect
